Reference: patent publication US12084436B2, “Heterocyclic compound” (Takeda Pharmaceutical Company Limited, priority 2019, dated 2024)

These compounds were tested against T1, HDAC6 enzyme (Homo sapiens, UniProt Q9UBN7) (assay: HDAC6 enzyme inhibitory assay (HDAC-Glo I/II Assay kit, luminescence)). Conditions: 10 μM test compound; wells without enzyme = 100% inhibition; 10 µM.
T1 construct: prepared by transducing full length HDAC6 gene into Sf-9 insect cells; GST; purchased SignalChem; host or cells: Sf-9 insect cells
T1 sequence (Q9UBN7 1-1215): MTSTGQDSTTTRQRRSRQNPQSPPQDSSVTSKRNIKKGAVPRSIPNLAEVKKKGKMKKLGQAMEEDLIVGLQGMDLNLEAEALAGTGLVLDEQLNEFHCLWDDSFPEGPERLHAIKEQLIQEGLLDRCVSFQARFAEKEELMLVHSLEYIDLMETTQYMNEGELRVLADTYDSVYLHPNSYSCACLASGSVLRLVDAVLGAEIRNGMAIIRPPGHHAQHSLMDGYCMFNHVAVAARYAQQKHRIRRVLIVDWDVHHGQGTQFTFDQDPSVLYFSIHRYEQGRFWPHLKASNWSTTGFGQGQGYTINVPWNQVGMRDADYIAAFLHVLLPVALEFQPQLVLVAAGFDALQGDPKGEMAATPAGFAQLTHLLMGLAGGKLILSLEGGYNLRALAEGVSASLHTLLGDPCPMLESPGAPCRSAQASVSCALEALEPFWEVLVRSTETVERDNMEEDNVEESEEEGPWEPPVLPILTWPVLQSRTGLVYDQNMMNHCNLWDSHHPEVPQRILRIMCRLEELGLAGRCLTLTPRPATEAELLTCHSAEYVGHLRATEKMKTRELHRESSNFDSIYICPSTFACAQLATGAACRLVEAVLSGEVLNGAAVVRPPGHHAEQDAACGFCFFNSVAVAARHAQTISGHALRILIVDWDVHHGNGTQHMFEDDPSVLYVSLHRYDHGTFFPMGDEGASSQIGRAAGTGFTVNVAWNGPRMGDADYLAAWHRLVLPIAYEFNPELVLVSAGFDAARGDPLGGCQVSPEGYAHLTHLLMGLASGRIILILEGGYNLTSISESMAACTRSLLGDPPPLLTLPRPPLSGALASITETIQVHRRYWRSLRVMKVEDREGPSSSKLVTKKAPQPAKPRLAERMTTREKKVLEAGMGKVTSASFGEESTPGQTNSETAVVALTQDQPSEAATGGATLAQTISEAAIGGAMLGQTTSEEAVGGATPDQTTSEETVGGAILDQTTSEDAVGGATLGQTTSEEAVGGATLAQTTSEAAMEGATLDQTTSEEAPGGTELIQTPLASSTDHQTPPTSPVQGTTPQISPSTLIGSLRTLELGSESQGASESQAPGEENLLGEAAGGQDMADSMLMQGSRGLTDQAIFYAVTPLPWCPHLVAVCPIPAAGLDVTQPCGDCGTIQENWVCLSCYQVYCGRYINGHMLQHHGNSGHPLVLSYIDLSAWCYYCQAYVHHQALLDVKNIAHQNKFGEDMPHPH
Assay type: biochemical
Experimental: HDAC6 Enzyme Inhibitory Assay
HDAC6 enzyme prepared by transducing full length HDAC6 gene into Sf-9 insect cells and purifying by GST affinity column were purchased from SignalChem. Using this enzyme, HDAC6 enzyme inhibitory activities of the compound of the present invention were evaluated. Enzymes were used after preserved at −70° C. HDAC6 enzyme inhibitory activity of the compound of the present invention was measured using HDAC-Glo™ I/II Assay kit (Promega) according to the following experimental method. The test compound diluted with assay buffer (24 mM Tris-HCl (pH 7.5), 1 mM MgCl2, 0.35 mM KCl, 135 mM NaCl, 0.6 mM Glutathione, 0.01% Tween-20) was added to a 384-well plate by each 2 μL. Then, HDAC6 enzyme solution diluted with assay buffer was added thereto by each 4 μL, and the plate was incubated at room temperature for 60 min. After incubated, HDAC substrate-Developer solution prepared according to Promega protocol attached to the assay kit was added to the 384-well plate by each 2 μL, and the enzyme reaction was started. After reacting at room temperature for 20 min, luminescence level was measured using plate reader Envision (PerkinElmer). The inhibitory activity of each compound of Example was calculated as a relative activity value when luminescence level in wells without enzyme is considered as 100% inhibition.
With `CN1C(=O)c2cc(-c3nnc(C(F)F)o3)cnc2CC1(C)c1ccc(F)cc1` (single isomer, unassigned) [Example 1b, 3-[5-(difluoromethyl)-1,3,4-oxadiazol-2-yl]-7-(4-fluorophenyl)-6,7-dimethyl-7,8-dihydro-1,6-naphthyridin-5(6H)-one] the “HDAC6 inhibitory rate (%) (10 μM)” value was 100%.
`CN1C(=O)c2cc(-c3nnc(C(F)F)o3)ccc2CC1(C)c1ccc(F)cc1` (single isomer, unassigned; isomer 1) [Example 23b, 7-[5-(difluoromethyl)-1,3,4-oxadiazol-2-yl]-3-(4-fluorophenyl)-2,3-dimethyl-3,4-dihydroisoquinolin-1(2H)-one (optical isomer 1)] was tested, and the “HDAC6 inhibitory rate (%) (10 μM)” value was 58%.
In the case of `CN1C(=O)c2cc(-c3nnc(C(F)F)o3)cnc2CC1(C)c1ccc(F)cc1` (single isomer, unassigned; isomer 1) [Example 27b, 3-[5-(difluoromethyl)-1,3,4-oxadiazol-2-yl]-7-(4-fluorophenyl)-6,7-dimethyl-7,8-dihydro-1,6-naphthyridin-5(6H)-one (optical isomer 1)], the “HDAC6 inhibitory rate (%) (10 μM)” value is reported as 56%.
With `CN1C(=O)c2cc(-c3nnc(C(F)F)o3)ccc2OC1(C)c1ccc(C#N)cc1` (single isomer, unassigned; isomer 1) [Example 36b, 4-{6-[5-(difluoromethyl)-1,3,4-oxadiazol-2-yl]-2,3-dimethyl-4-oxo-3,4-dihydro-2H-1,3-benzoxazin-2-yl}benzonitrile (optical isomer 1)] the “HDAC6 inhibitory rate (%) (10 μM)” value was 62%.
For `CN1C(=O)c2cc(-c3nnc(C(F)F)o3)cnc2CC1(C)c1ccc(F)c(F)c1` (single isomer, unassigned; isomer 1) [Example 39b, 3-[5-(difluoromethyl)-1,3,4-oxadiazol-2-yl]-7-(3,4-difluorophenyl)-6,7-dimethyl-7,8-dihydro-1,6-naphthyridin-5(6H)-one (optical isomer 1)], the “HDAC6 inhibitory rate (%) (10 μM)” value was 76%.
For `CN1C(=O)c2cc(-c3nnc(C(F)F)o3)ccc2OC1(C)c1ccc(F)cc1` (single isomer, unassigned; isomer 2) [Example 9b, 6-[5-(difluoromethyl)-1,3,4-oxadiazol-2-yl]-2-(4-fluorophenyl)-2,3-dimethyl-2,3-dihydro-4H-1,3-benzoxazin-4-one (optical isomer 2)], the “HDAC6 inhibitory rate (%) (10 μM)” value was 96%.
With `CN1C(=O)c2cc(-c3nnc(C(F)F)o3)ccc2CC1(C)c1ccc(F)cc1` (single isomer, unassigned; isomer 2) [Example 24b, 7-[5-(difluoromethyl)-1,3,4-oxadiazol-2-yl]-3-(4-fluorophenyl)-2,3-dimethyl-3,4-dihydroisoquinolin-1(2H)-one (optical isomer 2)] the “HDAC6 inhibitory rate (%) (10 μM)” value was 99%.
In the case of `CN1C(=O)c2cc(-c3nnc(C(F)F)o3)ccc2OC1(C)c1ccc(C#N)cc1` (single isomer, unassigned; isomer 2) [Example 37b, 4-{6-[5-(difluoromethyl)-1,3,4-oxadiazol-2-yl]-2,3-dimethyl-4-oxo-3,4-dihydro-2H-1,3-benzoxazin-2-yl}benzonitrile (optical isomer 2)], the “HDAC6 inhibitory rate (%) (10 μM)” value is reported as 100%.
For `CN1C(=O)c2cc(-c3nnc(C(F)F)o3)cnc2CC1(C)c1ccc(F)c(F)c1` (single isomer, unassigned; isomer 2) [Example 40b, 3-[5-(difluoromethyl)-1,3,4-oxadiazol-2-yl]-7-(3,4-difluorophenyl)-6,7-dimethyl-7,8-dihydro-1,6-naphthyridin-5(6H)-one (optical isomer 2)], the “HDAC6 inhibitory rate (%) (10 μM)” value was 100%.
With `CN1C(=O)c2cc(-c3nnc(C(F)F)o3)ccc2CC1c1ccc(F)cc1` (single isomer, unassigned; isomer 2) [Example 42b, 7-[5-(difluoromethyl)-1,3,4-oxadiazol-2-yl]-3-(4-fluorophenyl)-2-methyl-3,4-dihydroisoquinolin-1(2H)-one (optical Isomer 2)] the “HDAC6 inhibitory rate (%) (10 μM)” value was 93%.

Same assay, conditions: 10 μM test compound; wells without enzyme = 100% inhibition; read-out: HDAC6 inhibitory rate (%) (10 μM)
`CN1C(=O)c2cc(-c3nnc(C(F)F)o3)ccc2OC1(C)c1ccc(F)cc1` (single isomer, unassigned; isomer 1) [Example 8b, 6-[5-(difluoromethyl)-1,3,4-oxadiazol-2-yl]-2-(4-fluorophenyl)-2,3-dimethyl-2,3-dihydro-4H-1,3-benzoxazin-4-one (Optical Isomer 1)] gave an inhibition at 10 µM of 100%.
`CN1C(=O)c2cc(-c3nnc(C(F)F)o3)ccc2CC1c1ccc(F)cc1` (single isomer, unassigned; isomer 1) [Example 41b, 7-[5-(difluoromethyl)-1,3,4-oxadiazol-2-yl]-3-(4-fluorophenyl)-2-methyl-3,4-dihydroisoquinolin-1(2H)-one (Optical Isomer 1)] gave an inhibition at 10 µM of 99%.
`N#Cc1cc(Cn2ccnc2-c2cc(-c3nnc(C(F)F)o3)ccn2)ccc1F` [Example 1a, 5-[(2-{4-[5-(difluoromethyl)-1,3,4-oxadiazol-2-yl]pyridin-2-yl}-1H-imidazol-1-yl)methyl]-2-fluorobenzonitrile] gave an inhibition at 10 µM of 100%.
`COC(=O)N(Cc1ccc(F)cc1)N1Cc2ccc(-c3nnc(C(F)F)o3)cc2C1=O` [Example 1c, methyl {6-[5-(difluoromethyl)-1,3,4-oxadiazol-2-yl]-1-oxo-1,3-dihydro-2H-isoindol-2-yl}[(4-fluorophenyl)methyl]carbamate] gave an inhibition at 10 µM of 99%.
Work on `FC(F)c1nnc(-c2cccc(-n3nccc3C3CC3)c2)o1` [Example 2a, 2-[3-(5-cyclopropyl-1H-pyrazol-1-yl)phenyl]-5-(difluoromethyl)-1,3,4 oxadiazole] yielded an inhibition at 10 µM of 104%.
In the case of `O=C1NN(c2ccc(F)cc2)Cc2ccc(-c3nnc(C(F)F)o3)cc21` [Example 2b, 7-[5-(difluoromethyl)-1,3,4-oxadiazol-2-yl]-3-(4-fluorophenyl)-3,4-dihydrophthalazin-1(2H)-one], the inhibition at 10 µM is reported as 100%.
`O=C1c2cc(-c3nnc(C(F)F)o3)ccc2CN1N(Cc1ccc(F)cc1)CC1CCOCC1` [Example 2c, 6-[5-(difluoromethyl)-1,3,4-oxadiazol-2-yl]-2-{[(4-fluorophenyl)methyl][(oxan-4-yl)methyl]amino}-2,3-dihydro-1H-isoindol-1-one] was tested, and the inhibition at 10 µM was 99%.
With `FC(F)c1nnc(-c2ccnc(-c3nccn3Cc3ccccn3)c2)o1` [Example 3a, 4-[5-(difluoromethyl)-1,3,4-oxadiazol-2-yl]-2-{1-[(pyridin-2-yl)methyl]-1H-imidazol-2-yl}pyridine] the inhibition at 10 µM was 99%.
With `O=C1NN(c2ccc(F)cc2)Cc2ncc(-c3nnc(C(F)F)o3)cc21` [Example 3b, 3-[5-(difluoromethyl)-1,3,4-oxadiazol-2-yl]-7-(4-fluorophenyl)-7,8-dihydropyrido[2,3-d]pyridazin-5(6H)-one] the inhibition at 10 µM was 101%.
Work on `CC(C)(C)OC(=O)NN1Cc2ccc(-c3nnc(C(F)F)o3)cc2C1=O` [Example 3c, tert-butyl {6-[5-(difluoromethyl)-1,3,4-oxadiazol-2-yl]-1-oxo-1,3-dihydro-2H-isoindol-2-yl}carbamate] yielded an inhibition at 10 µM of 99%.
In the case of `Fc1cc(-c2nnc(C(F)F)o2)cc(-c2nccn2Cc2ccccc2)c1` [Example 4a, 2-[3-(1-benzyl-1H-imidazol-2-yl)-5-fluorophenyl]-5-(difluoromethyl)-1,3,4-oxadiazole], the inhibition at 10 µM is reported as 99%.
`CN1C(=O)c2cc(-c3nnc(C(F)F)o3)ccc2OC1(C)c1ccccc1` (stereo not shown) [Example 4b, 6-[5-(difluoromethyl)-1,3,4-oxadiazol-2-yl]-2,3-dimethyl-2-phenyl-2,3-dihydro-4H-1,3-benzoxazin-4-one] gave an inhibition at 10 µM of 99%.
